{
  "source": "paper PMC11967795",
  "about": "(Advanced Science, 2025)",
  "key": {"[1]": {"biological_target": "T1, RhuA (rRhuA; R. anatipestifer haemin uptake protein A) (Riemerella anatipestifer, UniProt J9QZE1)", "T1 construct": "gene B739_1417; recombinant", "T1 sequence (J9QZE1 17-210)": "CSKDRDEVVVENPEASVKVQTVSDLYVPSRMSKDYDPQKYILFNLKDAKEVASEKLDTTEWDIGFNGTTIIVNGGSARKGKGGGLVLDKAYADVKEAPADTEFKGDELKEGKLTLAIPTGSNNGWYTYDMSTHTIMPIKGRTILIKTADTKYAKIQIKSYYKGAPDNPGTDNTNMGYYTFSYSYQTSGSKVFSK", "experiment": "SDS-PAGE and ECL detection of bound haemin", "format": "binding", "details": "positive control"}, "[2]": {"biological_target": "recombinant RhuH protein (R. anatipestifer haem uptake protein haemophore), mature, without signal peptide (Riemerella anatipestifer CH-1)", "experiment": "SEC; purified recombinant apo RhuH on size exclusion chromatography; elution compared with the 35 kDa of the sequence"}},
  "data": [
    {"compound": "C=CC1=C(C)C2=Cc3c(C=C)c(C)c4[n]3[Fe]([Cl])[n]3c(c(C)c(CCC(=O)O)c3=CC3=NC(=C4)C(C)=C3CCC(=O)O)=CC1=N2", "note": "[haemin]", "values": [
      {"measurement": "SDS-PAGE and ECL detection of bound haemin", "setting": "[1]", "value": "haemin signal was detected in the haem binding protein rRhuA (positive control) incubated with haemin"}
    ]},
    {"compound": "recombinant RhuH protein (R. anatipestifer haem uptake protein haemophore), mature, without signal peptide (natural protein)", "values": [
      {"measurement": "stoichiometry N", "setting": "[2]", "value": 2}
    ]}
  ]
}
